Data on two compounds can be found in US20160271149A1, “[…] COMPOUNDS THAT […] PROTEIN ARGININE […] ACTIVITY FOR REDUCING TUMOR CELL PROLIFERATION” (Epinova Therapeutics Corp., priority 2015, published 2016).

In one experiment the test system is PRMTs. In words: Screen against protein arginine methyltransferases, summary statement.
A further experiment deals with T1, human PPARα (Homo sapiens, UniProt Q07869).
T1 sequence (Q07869 1-468): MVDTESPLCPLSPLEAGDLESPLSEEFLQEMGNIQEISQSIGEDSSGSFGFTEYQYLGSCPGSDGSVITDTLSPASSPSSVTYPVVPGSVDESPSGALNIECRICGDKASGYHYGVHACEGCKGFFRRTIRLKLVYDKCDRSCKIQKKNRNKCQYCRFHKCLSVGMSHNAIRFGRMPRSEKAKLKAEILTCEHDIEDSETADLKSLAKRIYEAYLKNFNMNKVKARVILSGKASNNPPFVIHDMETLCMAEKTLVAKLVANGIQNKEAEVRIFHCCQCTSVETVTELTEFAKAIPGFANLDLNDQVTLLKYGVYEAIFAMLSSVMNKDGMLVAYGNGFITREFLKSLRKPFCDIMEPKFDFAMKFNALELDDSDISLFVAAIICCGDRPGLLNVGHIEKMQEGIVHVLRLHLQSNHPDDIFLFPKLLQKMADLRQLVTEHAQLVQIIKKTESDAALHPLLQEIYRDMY
T1 sequence (P19793 1-462 partner): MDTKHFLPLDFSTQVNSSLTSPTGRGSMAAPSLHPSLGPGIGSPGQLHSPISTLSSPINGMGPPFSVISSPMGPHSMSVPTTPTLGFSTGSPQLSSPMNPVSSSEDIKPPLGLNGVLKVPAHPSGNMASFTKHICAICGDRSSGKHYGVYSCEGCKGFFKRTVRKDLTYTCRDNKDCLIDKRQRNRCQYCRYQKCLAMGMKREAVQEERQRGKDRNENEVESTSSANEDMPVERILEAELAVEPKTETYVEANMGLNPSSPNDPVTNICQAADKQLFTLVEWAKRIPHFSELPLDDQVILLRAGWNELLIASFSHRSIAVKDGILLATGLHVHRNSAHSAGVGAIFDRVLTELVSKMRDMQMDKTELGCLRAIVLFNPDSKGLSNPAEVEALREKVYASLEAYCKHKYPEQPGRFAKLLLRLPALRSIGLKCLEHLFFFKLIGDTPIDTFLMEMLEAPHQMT
The note with it: at 1 μM; COS-1 cells, human PPARα and RXRα; cited from earlier work.

The target in another experiment is PRMT5/MEP50 (Homo sapiens, UniProt O14744). As to the kind of experiment: Methyltransferase activity screen and profiling, PRMT5/MEP50, substrate Histone H2A. The settings on record: PRMT5/MEP50; substrate Histone H2A; single-dose mode, duplicate (Data 1, Data 2); 1 μM SAM; 100 μM.
Chain of PRMT5/MEP50 (O14744 whole entry): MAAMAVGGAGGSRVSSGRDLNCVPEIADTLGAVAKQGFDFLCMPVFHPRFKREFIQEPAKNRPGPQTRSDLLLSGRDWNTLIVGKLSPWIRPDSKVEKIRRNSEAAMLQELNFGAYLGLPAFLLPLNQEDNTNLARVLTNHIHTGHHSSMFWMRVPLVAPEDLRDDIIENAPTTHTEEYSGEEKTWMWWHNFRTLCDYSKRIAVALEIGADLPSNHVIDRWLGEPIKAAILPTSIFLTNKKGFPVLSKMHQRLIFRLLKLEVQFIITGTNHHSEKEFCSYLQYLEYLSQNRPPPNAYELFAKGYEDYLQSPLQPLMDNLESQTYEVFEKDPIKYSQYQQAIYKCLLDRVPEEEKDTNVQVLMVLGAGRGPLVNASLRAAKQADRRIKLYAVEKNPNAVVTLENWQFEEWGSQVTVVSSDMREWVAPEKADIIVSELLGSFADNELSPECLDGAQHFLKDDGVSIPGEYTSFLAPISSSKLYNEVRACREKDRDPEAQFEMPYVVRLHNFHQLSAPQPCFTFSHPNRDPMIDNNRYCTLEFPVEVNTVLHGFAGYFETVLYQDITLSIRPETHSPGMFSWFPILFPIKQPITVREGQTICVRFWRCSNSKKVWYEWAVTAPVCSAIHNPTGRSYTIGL
Chain of PRMT5/MEP50 (Q9BQA1 whole entry partner): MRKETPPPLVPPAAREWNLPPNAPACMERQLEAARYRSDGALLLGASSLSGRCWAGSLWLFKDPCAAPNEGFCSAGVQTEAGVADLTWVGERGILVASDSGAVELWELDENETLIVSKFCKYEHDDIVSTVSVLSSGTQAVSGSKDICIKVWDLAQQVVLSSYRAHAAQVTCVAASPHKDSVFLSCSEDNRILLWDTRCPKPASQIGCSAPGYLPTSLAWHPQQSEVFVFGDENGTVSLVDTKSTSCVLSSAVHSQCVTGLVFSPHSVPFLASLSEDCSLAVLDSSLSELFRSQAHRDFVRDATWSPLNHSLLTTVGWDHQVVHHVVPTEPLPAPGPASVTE
A further experiment deals with PRMT5 (Homo sapiens, UniProt O14744). In words: Methyltransferase activity screen, PRMT5, substrate Histone H2A.
Chain of PRMT5 (O14744 whole entry): as the sequence (O14744 whole entry) above
The next experiment concerns the target PRMT1 (Homo sapiens, UniProt Q99873). As to the kind of experiment: Methyltransferase activity screen, PRMT1, substrate Histone H4. The settings on record: single-dose mode, duplicate (Data 1, Data 2), 1 μM SAM, 100 μM.
Another experiment addresses PRMT6 (Homo sapiens, UniProt Q96LA8). As to the kind of experiment: Methyltransferase activity screen, PRMT6, substrate Histone H3. The settings on record: PRMT6; substrate Histone H3; single-dose mode, duplicate (Data 1, Data 2); 1 μM SAM; 100 μM.

Several values for one entry are separate records, joined by “and”; a condition that tells them apart may be missing. Identical values can stand only once.

Chain of PRMT6 (Q96LA8 whole entry): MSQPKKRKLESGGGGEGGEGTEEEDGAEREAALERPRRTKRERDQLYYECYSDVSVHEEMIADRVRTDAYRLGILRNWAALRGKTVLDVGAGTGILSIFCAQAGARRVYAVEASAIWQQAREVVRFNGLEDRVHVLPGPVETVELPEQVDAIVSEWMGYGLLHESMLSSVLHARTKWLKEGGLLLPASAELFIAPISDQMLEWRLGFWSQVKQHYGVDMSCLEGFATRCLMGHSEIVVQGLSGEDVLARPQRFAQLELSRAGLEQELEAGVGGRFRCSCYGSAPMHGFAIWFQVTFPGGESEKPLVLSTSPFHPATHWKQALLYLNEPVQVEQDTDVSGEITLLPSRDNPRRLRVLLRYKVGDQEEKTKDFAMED
Chain of PRMT1 (Q99873 whole entry): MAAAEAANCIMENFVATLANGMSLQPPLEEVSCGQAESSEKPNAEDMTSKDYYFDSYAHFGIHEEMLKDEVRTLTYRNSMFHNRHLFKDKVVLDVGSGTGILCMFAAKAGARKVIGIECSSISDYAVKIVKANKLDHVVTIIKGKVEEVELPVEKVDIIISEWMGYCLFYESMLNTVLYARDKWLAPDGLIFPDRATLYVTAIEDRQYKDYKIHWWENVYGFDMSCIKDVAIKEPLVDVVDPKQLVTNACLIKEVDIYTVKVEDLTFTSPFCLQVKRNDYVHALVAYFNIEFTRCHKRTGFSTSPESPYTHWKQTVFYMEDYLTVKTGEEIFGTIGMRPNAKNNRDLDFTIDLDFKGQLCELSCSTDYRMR
Experimental for PRMT1: (§1) A 10 mM DMSO stock solution of each test compound was prepared.
(§2) Compounds were tested in a single-dose mode, in duplicate at the following concentrations.
(§3) Reactions were carried out at 1 μM SAM. The no inhibitor control was set as 100% activity).
Experimental for PRMT5/MEP50: as §1, §2, §3
Experimental for PRMT6: as §1, §2, §3
Experimental for PRMTs: as §1, §2, §3

As for `C[C@H](CCC(=O)O)[C@H]1CC[C@H]2[C@@H]3[C@H](O)C[C@@H]4C[C@H](O)CC[C@]4(C)[C@H]3CC[C@]12C` [Chenodeoxycholic acid, 3α, 7α-dihydroxy-5β-cholan-24-oic acid], in the experiment on PRMTs, the “direct inhibitory effect on PRMTs” value is given as “no direct inhibitory effect”.
Take `CCc1ccc(CCOc2ccc(CC3SC(=O)NC3=O)cc2)nc1` (stereo not shown) [Pioglitazone, 5-[[4-[2-(5-ethyl-2-pyridinyl)ethoxy]phenyl]methyl]-2,4-thiazolidinedione]: the “activation of PPARα” value at human PPARα is “low level activation”. For the same compound, the “% Enzyme Activity (relative to DMSO controls)” value is 43.68% and 45.13% on PRMT5/MEP50; 18.95% and 18.46% on PRMT5 (PRMT5, substrate Histone H2A, single-dose mode, duplicate (Data 1, Data 2), 1 μM SAM, 100 μM); 110.44% and 99.23% on PRMT1; 93.46% and 102.78% at PRMT6. Moreover, the “inhibition of PRMT5” value against PRMT5 (at a concentration of 100 μM) is on record as “mild inhibitor”.
